The test system of data set [1] is WT (C57BL/6J) mice. The data set can be described thus: Behavioral reentrainment (wheel-running activity onsets) after 6-hour phase advance of the LD cycle. In kind it is in vivo, mouse. As for the experimental part: (§1) Handling and activity measurements during experiments were performed as described previously (Jud et al. 2005). Wheel-running activity was analyzed using ClockLab software (Actimetrics). For the jet lag experiment (6-hour rapid advance or 8-hour rapid delay of the LD cycle), animals were single-housed in running wheel-equipped cages for 2 weeks or longer under LD conditions (lights on, ZT0; light intensities of 350 lux). On day 1 of the jet lag, the lights-off time (ZT12) was shifted from 6 pm to […] (phase advance paradigm) or from 6 pm to 2 am (phase delay paradigm). Using a short day protocol, we defined day 1 as the first advanced dark period (similar to Davidson et al. 2009, who used a short night approach in which the first day is defined by the deemed light period; but different from Yamazaki et al. 2000, where the following day—corresponding to day 2 in our study—was referred to as day 1). […] Animals were synchronized to the new LD regimen for another 2 weeks during which time of wheel-running activity was recorded. Individual activity onsets before and after the shift were determined by visual inspection and averaged over the whole cohort to asses reentrainment rates. […]
(§2) Peak time analyses were performed using Prism software (GraphPad). […] Maxima were calculated using the axis section of the second derivative. […]

The test system of data set [2] is WT (C57BL/6J) mice. As to the kind of experiment: Behavioral reentrainment (wheel-running activity onsets) after 8-hour phase delay of the LD cycle. In kind it is in vivo, mouse. As to the method:
as §1, §2

For data set [3], the system named is WT (C57BL/6J) mice. The data set can be described thus: Observations during the 16-day metyrapone injection period before jet lag. In kind it is in vivo, mouse. Particulars: for effect on the onset of wheel-running activity: during injection period. As for the experimental part: Handling and activity measurements during experiments were performed as described previously (Jud et al. 2005). Wheel-running activity was analyzed using ClockLab software (Actimetrics). For the jet lag experiment (6-hour rapid advance or 8-hour rapid delay of the LD cycle), animals were single-housed in running wheel-equipped cages for 2 weeks or longer under LD conditions (lights on, ZT0; light intensities of 350 lux). On day 1 of the jet lag, the lights-off time (ZT12) was shifted from 6 pm to […] (phase advance paradigm) or from 6 pm to 2 am (phase delay paradigm). Using a short day protocol, we defined day 1 as the first advanced dark period (similar to Davidson et al. 2009, who used a short night approach in which the first day is defined by the deemed light period; but different from Yamazaki et al. 2000, where the following day—corresponding to day 2 in our study—was referred to as day 1). For the delay experiment (8-hour rapid delay of the LD cycle), animals were housed in running wheel—equipped single cages for 2 weeks or longer under LD conditions (lights on, ZT0; light intensities of 50 lux). On day 1 of the jet lag, the lights-off time (ZT12) was shifted from 12 pm to 8 pm. Day 1 was defined here as the day with the first delayed dark period. Animals were synchronized to the new LD regimen for another 2 weeks during which time of wheel-running activity was recorded. Individual activity onsets before and after the shift were determined by visual inspection and averaged over the whole cohort to asses reentrainment rates. Administration of metyrapone (Sigma-Aldrich) to WT mice was done for 16 days prior to the jet lag procedure (see above). Two sets of 24 animals each received metyrapone dissolved in water (100 mg/kg body weight per day) via i.p. injection at different times during the day. Injections were stopped 1 day before the LD shift (day 0). METD animals were injected during the first half of their rest phase at ZT3; METN animals received metyrapone injections at the beginning of their activity phase at ZT12. […]

For data set [4], the system named is corticosterone excretion rhythms. The data set can be described thus: Fecal corticosterone excretion rhythm after 16 days of timed metyrapone injection. In kind it is in vivo, mouse. Particulars: for direction of shift of the peak of maximum glucocorticoid levels: mice. As for the experimental part: Fecal samples were collected at 4-hour intervals before and after the jet lag treatment using wheel cages equipped with wire grid floors. To rule out stress-induced effects, animals were transferred to the collection cages 3 days prior to the first sampling interval. Fecal samples were stored at −80° C. Corticoid metabolite extraction and quantification by RIA (MP Biomedicals) were performed as described previously (Abraham et al. 2006).
Administration of metyrapone (Sigma-Aldrich) to WT mice was done for 16 days prior to the jet lag procedure (see above). Two sets of 24 animals each received metyrapone dissolved in water (100 mg/kg body weight per day) via i.p. injection at different times during the day. Injections were stopped 1 day before the LD shift (day 0). METD animals were injected during the first half of their rest phase at ZT3; METN animals received metyrapone injections at the beginning of their activity phase at ZT12. At day 16 of the treatment (day-1 relative to LD shift), fecal samples were collected to analyze the phase shift of corticoid excretion rhythms. Saline-treated (0.9% NaCl) WT littermates injected at ZT3 or ZT12 were used as controls for all experiments.
Peak time analyses were performed using Prism software (GraphPad). A sine wave equation, y=BaseLine+Amplitude sin(frequency x+PhaseShift), was fitted to the data. For gene expression and corticosterone data, frequency was fixed to 24 hours. Maxima were calculated using the axis section of the second derivative. To determine PS50, a sigmoid dose-response curve with variable slope was fitted to the sine wave maxima (corticosterone), y=Bottom+(Top−Bottom) (1+10(log PS50−x) HillSlope), or onset time points (locomotor activity) for each group. To test whether the best-fit PS50 values differed between data sets, data were compared by extra sum-of-squares F test using a P value of less than 0.05 as a threshold. Maxima of gene expression or corticosterone at specific days were compared by Mann-Whitney rank sum test, even if normality tests and equal variance tests were positive, reflecting the small sample sizes of 3-9. A statistically significant difference was assumed with P values less than 0.05. Correlations between phase-shift activity onsets and corticosterone maxima were performed using linear regression. The quality of fit was estimated by r determination. Departure from linearity was tested with runs test. Normality and homoscedasticity tests were passed for all data sets. Diurnal variation of expression data was tested using Fourier analysis with CircWave version 3.3 software (Oster et al. 2006) and threshold values of 0.05 for α and a period of 24 hours.

Another data set concerns hamsters. Conditions: cited from earlier work.
The mark [5] stands for this setting: METD (ZT3 injection, 16 days before shift) vs SALD.
The mark [6] stands for this setting: METN (ZT12 injection, 16 days before shift) vs SALN.

Regarding `CC(C)(C(=O)c1cccnc1)c1cccnc1` [metyrapone, 2-methyl-1,2-di-3-pyridyl-1-propanone], the “activity resetting after 6-hour phase advance” value in the data set with WT (C57BL/6J) mice [1] (setting [5]) is “accelerated activity resetting”; in the data set with WT (C57BL/6J) mice [1] (setting [6]), “reentrained slower”. Also, the “behavioral adaptation after 8-hour phase delay” value was “decelerated adaptation” in the data set on WT (C57BL/6J) mice [2] (setting [5]) and “more rapid behavioural adaptation” in the data set with WT (C57BL/6J) mice [2] (setting [6]). In addition, the “effect on the onset of wheel-running activity” value with WT (C57BL/6J) mice [3] (METD mice) is reported as “no effect”; with WT (C57BL/6J) mice [3] (METN mice), “only minor effect”. Besides, the “side effect of injection” value with WT (C57BL/6J) mice [3] (daily i.p. injection, 100 mg/kg, 16 days) is on record as “transient drowsiness”. In addition, the “amplitude of glucocorticoid excretion rhythms” value in data set [4] (METD and METN, 16 days of treatment, data not shown) is listed as “did not significantly change”. The “forward shift of corticosterone maximum relative to SALD control” value in data set [4] (METD: 100 mg/kg/day i.p. at ZT3 (rest phase) for 16 days, day prior to phase shift) was 1 h. In data set [4] (METN: 100 mg/kg/day i.p. at ZT12 (beginning of activity phase) for 16 days), the “backward shift of peak corticosterone relative to SALN” value was 1 h. For the same compound, the “direction of shift of the peak of maximum glucocorticoid levels” value was “backward shift” in data set [4] (administration at 6 pm (first half of the active phase)) and “forward shift” in data set [4] (administration at 9 am (first half of rest phase)).

As for `CCCc1nn(C)c2c(=O)[nH]c(-c3cc(S(=O)(=O)N4CCN(C)CC4)ccc3OCC)nc12` [sildenafil], in the data set on hamsters, the “circadian responses to light” value is on record as “enhances circadian responses to light” and the “reentrainment after phase advances of the LD cycle” value is recorded as “accelerates reentrainment”.
